Structures are written as SMILES. Residues, ends and D or L forms follow the SMILES beside them. *: point of attachment. Cbz = O=C(OCc1ccccc1)*

Experimental findings from US20080268533A1, “Methods and Compositions Utilizing Myc and Gsk3Beta to Manipulate the Pluripotency of Embryonic Stem Cells” (University of Georgia Research Foundation, Inc., priority 2004, published 2008) are described below.

The test system of one series is BG01 cells. Briefly: LY 294002 induced definitive endoderm (DE) formation, Sox17 Q-PCR. The conditions noted are these: BG01 on matrigel in MEF-CM, 60 μM LY 294002, BIO approx. 0.1-5 μM, MeBIO approx. 1-5, 3-4 days, Sox17 mRNA by Q-PCR. The format is cell-based, human. The procedure: Q-PCT was performed using relative quantitation using SYBR Green chemistry on the Rotor Gene 3000 instrument (Corbett Research) and a two-step RT-PCR format. Primers were designed to lie over exon-exon boundaries or span introns of at least 800 bp when possible, as this has been empirically determined to eliminate amplification from contaminating genomic DNA.
Total RNA was isolated using RNeasy (Qiagen) and quantitated using RiboGreen (Molecular Probes). Reverse transcription from 350-500 ng of total RNA was carried out using the iScript reverse transcriptase kit (BioRad), which contains a mix of oligo-dT and random primers. Each 20 μL reaction was subsequently diluted up to 100 μL total volume and 3 μL was used in each 10 μL Q-PCR reaction containing 400 nM forward and reverse primers and 5 μL 2×SYBR Green master mix (Qiagen). Two step cycling parameters were used employing a 5 second denature at 85-94° C. (specifically selected according to the melting temp of the amplicon for each primer set) followed by a 45 second anneal/extend at 60° C. Fluorescence data was collected during the last 15 seconds of each extension phase. A three point, 10-fold dilution series was used to generate the standard curve for each run and cycle thresholds (Ct's) were converted to quantitative values based on this standard curve. The quantitated values for each sample were normalized to housekeeping gene performance and then average and standard deviations were calculated for triplicate samples. At the conclusion of PCR cycling, a melt curve analysis was performed to ascertain the specificity of the reaction. A single specific product was indicated by a single peak at the Tm appropriate for that PCR amplicon.
Both Cyclophilin G and GUS were used to calculate a normalization factor for all samples. The use of multiple HGs simultaneously reduces the variability inherent to the normalization process and increases the reliability of the relative gene expression values (Vandesompele et al., 2002, Genome Biol., 3:RESEARCH0034). […]

A further series concerns GSK3β^S9 phosphorylation. It counts as cell-based, murine. The conditions noted are these: 6 hours, CA 2 nM, OA 2 nM. How it is done:
MESCs and d2 EBs were treated for the short-term (6 hours) with phosphatase inhibitors of varying specificities.

Series [1] has as its target T1, GSK3β (Mus musculus, UniProt Q9WV60).
T1 construct: endogenous in cells; host or cells: day 6 embryoid bodies derived from mouse ES cells (D3 / R1-EGFP)
The series is described as follows: GSK3β kinase assay on immunoprecipitate, MBP substrate. The format is biochemical. The following applies: day 6 EB lysates, inhibitor 3 μM in ethanol. How it is done: Cell lysate (300 μg total protein) was adjusted to 1 mg/ml with cell lysis buffer and tumbled with 3 μg of primary antibody for 3 hours at 4° C. 30 μL of protein A Sepharose beads were added and tumbled for a further 1 hour at 4° C. The beads were washed three times with 1 ml of cold lysis buffer and once with 1 ml of kinase buffer (50 mM Hepes pH 7.5, 10 mM MgCl2, 1 mM DTT, 2.5 mM EGTA and protease inhibitor cocktail II (Calbiochem)). Immune complexes bound to the PAS beads were resuspended in 30 μL of kinase buffer with or without the addition of GSK3β inhibitor II (3 μM in ethanol, Calbiochem) or ethanol and incubated at 30° C. for 20 minutes. 10 μCi of [γ-^32P] ATP and 5 μg of myelin basic protein (MBP, Upstate Biotech) was added and the reactions incubated at 30° C. for a further 20 minutes. Reactions were terminated by the addition of 2×SDS load buffer, heated at 95° C. for 2 minutes and resolved on a 12% SDS-polyacrylamide gel. Kinase activities were quantitated by phosphorimager analysis.
A common mechanism that triggers c-myc degradation is through its phosphorylation at threonine 58 (T58) by GSK3β (Hoang et al., (1995) Mol. Cell. Biol., 15:4031-4042; Sears et al., (2000) Genes Dev., 14:2501-2514; Gregory et al., (2003) J. Biol. Chem., 278:51606-51612). […]

Another series concerns c-myc. Briefly: c-myc protein stability assay with proteosome inhibitor (immunoblot). The format is cell-based, mouse. The conditions noted are these: EBs (−LIF), MG132 5 μM, 3 hours prior to harvesting. How it is done:
Cells were lysed by incubating for one hour on ice in lysis buffer consisting of 50 mM Hepes pH 7.5, 1 mM EDTA, 1 mM EGTA, 250 mM NaCl, 10% glycerol, 0.1% Tween-20, 10 μg/ml TPCK, 50 μg/ml TLCK, 170 μg/ml PMSF, 0.5 mg/ml leupeptin, 0.7 mg/ml pepstatin and phosphatase inhibitor cocktail II (Calbiochem) with occasional vortexing/pipetting. Whole cell extracts (20-40 μg total protein) were separated by 10% SDS-PAGE, transferred to nitrocellulose membranes (BioRad), blocked with 3% BSA in TBSE (Tris HCl pH 7.5, 150 mM NaCl, 2 mM EDTA and 0.1% NP40) and probed with the indicated antibodies at 4° C. The following antibodies were used: anti-c-myc (N-262; Santa Cruz), anti-Oct4 (N-19; Santa Cruz), anti-tubulin (Serotech), anti-HDAC1 (Zymed), anti-Cdk2 (M2; Santa Cruz), anti-GSK3β (Transduction Laboratories). The anti-HDAC1 antibody detects both HDAC1 and HDAC2 and accordingly, a doublet is seen by immunoblot analysis. An antibody that recognizes the T58 phosphorylated form of c-myc (T58/S62, Cell Signaling Technology) was used to evaluate the status of c-myc^T58. […]
If so, it was predicted that c-myc would have enhanced stability. To test this possibility, the stability of c-myc was determined in undifferentiated ES cells relative to other cell types where its stability is in the order of 30 minutes or less (Hann & Eisenman, (1984) Mol. Cell. Biol., 4:2486-2497). […]
(In general: In western blotting, separated proteins are transferred to a membrane and probed.)

Series [2] deals with GSK3β. Briefly: GSK3β nuclear localization in EBs after OA treatment (staining). The format is cell-based, murine. The conditions noted are these: OA added to EBs, short incubation; data not shown. The text has this:
A key issue relating to the understanding of self-renewal is determining how GSK3β activity is suppressed in ESCs but activated in cells committed to differentiate. […] The cytoplasmic localization of GSK3β in mESCs was corroborated by subcellular fractionation using hypotonic lysis (FIG. 3).
This mechanism accounts for the observed decline in phospho-S9 and activation of GSK3β that occurs during the early stages of differentiation. CA inhibits PP1 and PP2A in contrast to OA, which selectively targets PP2A. This implicated PP2A as a S9 phosphatase in this system. This is supported by experiments showing that PP2A complexes with GSK3 and c-myc in d2 EBs (FIG. 4C). […] While it is possible that nuclear GSK3β was degraded during OA treatment and nascent GSK3β retained in the cytoplasm, it is also likely that GSK3β is transported out of the nucleus in response to OA treatment since only short incubation periods were used and GSK3β is normally a stable protein. This would be consistent with a model where GSK3β localization is controlled by the phosphorylation status of S9. It is known that PP2A dephosphorylates S62 on c-myc, resulting in its degradation (Sears, (2004) Cell Cycle, 3(9):1133-7).

T1 sequence (Q9WV60 whole entry): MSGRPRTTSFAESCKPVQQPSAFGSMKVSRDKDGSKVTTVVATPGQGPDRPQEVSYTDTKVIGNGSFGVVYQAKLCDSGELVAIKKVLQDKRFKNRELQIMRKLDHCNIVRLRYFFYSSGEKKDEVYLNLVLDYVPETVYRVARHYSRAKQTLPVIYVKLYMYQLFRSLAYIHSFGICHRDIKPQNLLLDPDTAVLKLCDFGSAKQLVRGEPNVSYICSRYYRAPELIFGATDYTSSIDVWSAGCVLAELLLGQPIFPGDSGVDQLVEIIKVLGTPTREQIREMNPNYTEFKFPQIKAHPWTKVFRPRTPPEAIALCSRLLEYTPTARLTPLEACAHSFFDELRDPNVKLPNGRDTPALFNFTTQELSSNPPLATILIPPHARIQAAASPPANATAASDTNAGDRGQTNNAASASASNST

For `O=C1Nc2cc(Br)ccc2/C1=C1/Nc2ccccc2/C1=N\O` [BIO, 6-bromoindirubin-3′-oxime], the “LY 294002 induced DE formation as determined by Sox17 expression” value in the series with BG01 cells was “blocks LY 294002 induced DE formation”.

`COC[C@@H]([C@H](O)[C@H](O)C(=O)NCC[C@H](C)c1nc(/C=C/C[C@@H]2O[C@]3(C[C@@H](O)[C@@H]2C)O[C@H]([C@H](C[C@H](O)[C@H](C)[C@H](O)[C@H](C)/C=C(C)/C(C)=C/C=C/C(C)=C\C#N)OC)[C@H](OP(=O)(O)O)C3(C)C)co1)N(C)C` [Calyculin A]: the “GSK3β S9 phosphorylation in d2 EBs” value with GSK3β^S9 phosphorylation is on record as “significantly increased S9 phosphorylation”.

Turning to `Ic1cccc(CSc2nnc(-c3ccncc3)o2)c1` [GSK3β inhibitor II], on GSK3β [1], the “immunoprecipitated GSK3β kinase activity” value was “sensitive”.

Consider `CC(C)C[C@@H](C=O)NC(=O)[C@H](CC(C)C)NC(=O)[C@H](CC(C)C)NC(=O)OCc1ccccc1` [MG132] (Cbz-Leu-Leu-Leu-aldehyde), for which the “turnover of c-myc protein following LIF withdrawal” value in the series on c-myc was “blocked”.

As to `CN1C(=O)/C(=C2\Nc3ccccc3\C2=N/O)c2ccc(Br)cc21` [MeBIO], the “LY 294002 induced DE formation as determined by Sox17 expression” value in the series with BG01 cells (listed as MeBio) is recorded as “but not MeBio, blocks LY 294002 induced DE formation”; with BG01 cells (listed as meBio), “but not meBio, blocked LY 294002 induced DE formation”.

Regarding `C=C1[C@@H](O)[C@@H]2O[C@]3(CC[C@H](/C=C/[C@@H](C)[C@@H]4CC(C)=C[C@@]5(O[C@H](C[C@@](C)(O)C(=O)O)CC[C@H]5O)O4)O3)CC[C@H]2O[C@@H]1[C@@H](O)C[C@H](C)[C@H]1O[C@@]2(CCCCO2)CC[C@H]1C` [okadaic acid], the “GSK3β S9 phosphorylation in d2 EBs” value in the series with GSK3β^S9 phosphorylation is recorded as “significantly increased S9 phosphorylation”. For the same molecule, in the series with GSK3β [2], the “GSK3β staining in the nucleus” value is “GSK3β staining in the nucleus disappeared”.
